Laboratory results taken from patent publication US5639734A, “Disaccharide inflammation inhibitors and uses thereof” (priority 1994, dated 1997).
“Also recorded” adds a separate entry of the source. Where two headings read alike, the source gives them in different places.

What was measured:
[1] = tested on: HL-60 adhesion to activated human umbilical vein endothelial cells (HUVEC); assay: Adhesion of HL-60 cells to TNF-α-activated HUVEC; assay type: cell-based; conditions: for Inhibition of HL-60 / leukocyte adhesion (in words): TNF-α-treated HUVEC, concentration not given
[2] = tested on: sLe^x on HL-60 cells; assay: FACS of sLe^x expression on HL-60 cells with mAb CSLEX-1; assay type: cell-based, human; conditions: for Inhibition of sialyl Lewis X formation in HL-60 cells (in words): concentration not given
[3] = tested on: F9 cells; assay: Priming of [3H]GlcN-labeled oligosaccharides in F9 cells; assay type: cell-based, mouse; conditions: for Priming of oligosaccharides (in words) / Priming: F9 cells; for Priming of oligosaccharides (in words): [3H]GlcN; for Priming: Table I, per μg cell protein, control value (30) subtracted; for Fraction of labeled oligosaccharides that were charged (bound to QAE-Sephadex): anion-exchange chromatography
[4] = tested on: F9 cells; assay: Uptake of disaccharides by F9 cells, fluorescence assay; assay type: in vitro ADME, mouse; conditions: for Uptake: Table I, control value without glycoside (1.0) subtracted
[5] = tested on: Chinese hamster ovary cells; assay: Uptake of glycosides by Chinese hamster ovary cells, fluorescence assay; conditions: for Uptake (in words): CHO cells, 37° C., FIG. 1 and 2 (100 μM in FIG. 2); for Uptake: relative to Xylβ-0-2-naphthol 1.0 unit
Protocol: Confluent monolayers of Chinese hamster ovary cells were incubated with the indicated concentrations of Xylβ-0-2-naphthol at 37° C. for 30 minutes. The amount of glycoside taken up was determined by fluorescence assay.
The various glycosides were added (100 μM) to confluent Chinese hamster ovary cell monolayers and at the times indicated, the amount of glycoside taken up was quantitated by fluorescence assay. Filled circles: Xylβ-0-2-naphthol; filled square: Galβ-0-2-naphthol; unfilled triangle: Galβ1→4Xylβ-0-2-naphthol; filled triangle: Galβ1 →3Galβ0-2-naphthol.
Compounds were dissolved in DMSO and added to growth medium such that the final concentration of vehicle was 0.5% (v/v). Confluent cells were incubated with supplemented growth medium at 37° C. for various times. The cultures were placed on ice, the medium was aspirated and the cells were washed three times with cold PBS containing 1 mg/ml of bovine serum albumin. Cells were solubilized in a small volume of 0.1M NaOH and the extracts were neutralized with one mole equivalent of acetic acid. After centrifuging the samples, the supernatants were applied to Sep-Pak Plus C18 cartridges (Waters Associates) and washed with water (10 ml) and 20% (v/v) methanol in water (5 ml). Bound material was eluted with 5 ml of 40% (v/v) methanol in water and concentrated to dryness. The residue was dissolved in methanol and its fluoresence was measured (SLM-Aminco Instruments). The excitation and emission wavelengths for 2-naphthol derivatives were 293 nm and 395 nm, respectively. Phenanthrol derivatives were excited at 310 nm and the emission was measured at 365 nm.
Animal cells take up β-D-xylosides and prime glycosaminoglycan chains with great efficiency. For priming to occur, the glycoside must pass though the plasma membrane and enter the Golgi where the glycosyltransferases reside. […] Xylβ-0-2-naphthol has three hydroxyl groups, whereas Gal-0-2-naphtholhas four.

[6] = tested on: pgsA-745 cells (xylosyltransferase deficient Chinese hamster ovary cells); assay: Priming of [35S]glycosaminoglycan chains in xylosyltransferase-deficient CHO mutant pgsA-745 cells; assay type: cell-based; conditions: FIG. 3, 5 hours at 37° C.; for Priming of glycosaminoglycan chains (in words): up to 500 μM; for minimal effective concentration: Cricetulus griseus, read-out: Concentration at which glycosaminoglycan chains are primed
Protocol: Various compounds at the indicated concentrations were provided to confluent Chinese hamster ovary cells in a 96 well plate. Glycosaminoglycan synthesis was measured by autoradiography of [^35 S]-glycosaminoglycan collected on a postively charged nylon membrane. 1: Xylβ-0-2-naphthol; 2: Xylβ1→6Gal-0-2-naphthol; 3: Xylβ1→6Gal(Me)-0-2-naphthol; 4: Xylβ1→6Gal(Me)2 -0-2-naphthol; 5: Xylβ1→6Gal(Me)3 -0-2-naphthol; 6: Xyl(Ac)3 β-0-2-naphthol; 7:Xyl(Ac)3 β1→6Gal(Ac)3 -0-2-naphthol.
Priming of glycosaminoglycan chains was measured in pgsA-745 cells deficient in xylosyltransfersase. The cells were grown to confluence in 96-well microtiter plates (Falcon). Fresh medium (0.2 ml) containing 50 μCi/ml of H2^35 SO4 (25-40 Ci/mg) and the test compounds were added to the wells. The top row of wells contained […] of glycoside and each subsequent row contained a serial dilution (1:3^n, v/v). Cells were incubated for 5 hours at 37° C. and solubilized by adding 20 μl of 0.5M NaOH. The individual wells were adjusted to 0.2% (w/v) Zwittergent 3-12, 25 μg/ml chondroitin sulfate, 0.2M acetic acid and 10 mM Na2 SO4. The samples were transferred to a GeneScreen Plus membrane (Dupont-NEN) placed on top of a piece of 1Chr paper on a vacuum Minifold (Schleicher & Schuell). A wash solution of 0.2% (w/v) Zwittergent 3-12, 0.2M acetic acid and 10 mM Na2 SO4 (0.5 ml) was passed through each well. The membranes were removed from the Minifold, soaked for 5 minutes in 20 ml of wash solution, air-dried and exposed to RX X-ray film for 10-18 hours.
Therefore, uptake of the disaccharide was measured indirectly by the determining the incorporation of ^35 SO4 into glycosaminoglycan chains. To distinguish glycosaminoglycans produced on the glycoside from those made on endogenous proteoglycans, a Chinese hamster ovary cell mutant deficient in xylosyltransferase was made. […] [^35 S]glycosaminoglycan synthesis was measured by incubating mutant cells in a 96 well plate with glycoside derivatives at different doses. The cells and spent media were then transferred to a positively charged nylon membrane to detect newly made chains by autoradiography.

[7] = tested on: basic fibroblast growth factor; conditions: background; cited from earlier work
[8] = listed as acetylated Galβ1→4GlcNAcβ-0-2-naphthalenemethanol
[9] = listed as peracetylated Galβ1→4GlcNAcβ-0-2-naphthalenemethanol

## CC(=O)N[C@H]1[C@H](O[C@H]2[C@@H](OC(C)=O)[C@@H](COC(C)=O)O[C@@H](OCc3ccc4ccccc4c3)[C@@H]2OC(C)=O)O[C@H](COC(C)=O)[C@@H](OC(C)=O)[C@@H]1OC(C)=O [AcGlcNAcGal-NM, Peracetylated GlcNAcβ1-3Galβ-0-naphthalenemethanol]
[1]
  Inhibition of HL-60 / leukocyte adhesion (in words): inhibits cell adhesion more efficiently than acetylated Galβ1→4GlcNAcβ-X-naphthalenemethanol
[2]
  Inhibition of sialyl Lewis X formation in HL-60 cells (in words): inhibit the formation of sialyl Lewis X
[3]; >25 μM
  Fold [3H]GlcN-labeled oligosaccharides primed compared with AcLacNAc-NM: ~10 -fold
[3]
  Priming of oligosaccharides (in words): much more active than AcLacNAc-NM at low dose
[3]; listed as Acetylated GlcNAcβ1→3Galβ-O-naphthalenemethanol
  Priming of oligosaccharides (in words): primes oligosaccharides and inhibits cell adhesion more efficiently than acetylated Galβ1→4GlcNAcβ-X-naphthalenemethanol
[3]; listed as acetylated GlcNAcβ1→3Galβ-O-naphthalenemethanol
  Priming of oligosaccharides (in words): prime oligosaccharides in cultured cells

## CC(=O)N[C@H]1[C@H](OCc2ccc3ccccc3c2)O[C@H](COC(C)=O)[C@@H](O[C@@H]2O[C@H](COC(C)=O)[C@H](OC(C)=O)[C@H](OC(C)=O)[C@H]2OC(C)=O)[C@@H]1OC(C)=O [AcLacNAc-NM, acetylated Galβ1→4GlcNAcβ-O-naphthalenemethanol]
[1]; 100 μM AcLacNAc-NM, TNF-α HUVEC, static
  Fold reduction in attached HL-60 cells: 8 -fold
[1]
  Inhibition of HL-60 / leukocyte adhesion (in words): reduced adhesion
[1]; [8]
  Inhibition of HL-60 / leukocyte adhesion (in words): The decrease in sLe^x expression had a corresponding effect on cell adhesion
[2]; 200 μM acetylated sugars, 40 hours / two days, mAb CSLEX-1
  sLe^x expression on the cell surface, FACS (in words): the cell population shifted to a lower mean fluorescence
[2]
  Inhibition of sialyl Lewis X formation in HL-60 cells (in words): inhibit the formation of sialyl Lewis X
[2]; [8]
  Inhibition of sialyl Lewis X formation in HL-60 cells (in words): inhibition of sLe^x expression on the surface of HL-60 cells
[4]
  Uptake (in words): nearly as well as non-acetylated pentosides linked to naphthol
  Uptake: 6.4 Arbitray units
[4]; [9]
  Uptake (in words): nearly as efficient as Xylβ-0-napthol
[3]
  Priming of oligosaccharides (in words): primed oligosaccharides in F9 cells; also recorded: A significant lag phase preceded priming of oligosaccharides
  Priming: 250 ^3 H-cpm/μg
  Fraction of labeled oligosaccharides that were charged (bound to QAE-Sephadex): About 25%
[3]; listed as acetylated Galβ1→4GlcNAcβ-O-naphthalenemethanol
  Priming of oligosaccharides (in words): prime oligosaccharides in cultured cells
[3]; [9]
  Priming of oligosaccharides (in words): A large amount of labeled material was generated
  Fraction of labeled oligosaccharides that were charged (bound to QAE-Sephadex): approximately 25%

## OC[C@H]1O[C@@H](O[C@H]2[C@@H](O)[C@@H](CO)O[C@@H](Oc3ccc4ccccc4c3)[C@@H]2O)[C@H](O)[C@@H](O)[C@H]1O [Galβ1→3Galβ-0-2-naphthol]
[5]
  Uptake (in words): not taken up al all

## OC[C@H]1O[C@@H](O[C@H]2[C@@H](O)[C@@H](CO)O[C@@H](Oc3cc4ccccc4c4ccccc34)[C@@H]2O)[C@H](O)[C@@H](O)[C@H]1O [Galβ1→3Galβ-0-9-phenanthrol]
[5]
  Uptake: less than 0.1 unit of fluorescence

## CC(=O)N[C@H]1[C@H](OCc2ccc3ccccc3c2)O[C@H](CO)[C@@H](O[C@@H]2O[C@H](CO)[C@H](O)[C@H](O)[C@H]2O)[C@@H]1O [Galβ1→4GlcNAcβ-0-naphthalenemethanol, Galβ1→4GlcNAcβ-0-2-naphthalenemethanol]
[4]
  Uptake (in words): very limited
  Uptake: 0.5 Arbitray units
[3]
  Priming of oligosaccharides (in words): increases with time and does not saturate for several hours
  Priming: 20 ^3 H-cpm/μg

## OC[C@H]1O[C@@H](O[C@@H]2CO[C@@H](Oc3ccc4ccccc4c3)[C@H](O)[C@H]2O)[C@H](O)[C@@H](O)[C@H]1O [Galβ1→4Xylβ-0-2-naphthol]
[5]
  Uptake (in words): not taken up al all

## OC[C@H]1O[C@@H](Oc2ccc3ccccc3c2)[C@H](O)[C@@H](O)[C@H]1O [Galβ-0-2-naphthol]
[5]
  Uptake (in words): slow and reached a lower steady-state level
  Uptake: 0.3 unit of fluorescence

## OC[C@H]1O[C@@H](Oc2cc3ccccc3c3ccccc23)[C@H](O)[C@@H](O)[C@H]1O [Galβ-0-9-phenanthrol]
[5]
  Uptake: 4.2 unit of fluorescence

## O[C@@H]1[C@@H](O)[C@@H](Oc2ccc3ccccc3c2)OC[C@@H]1O [L-Araβ-0-2-naphthol, L-Araα-0-2-naphthol]
[5]
  Uptake (in words): diffuse more readily than hexosides
  Uptake: 0.8 unit of fluorescence

## CC(=O)O[C@@H]1[C@@H](OC(C)=O)[C@H](Oc2ccc3ccccc3c2)OC[C@H]1OC(C)=O [Xyl(Ac)3 β-0-2-naphthol]
[6]
  Priming of glycosaminoglycan chains (in words): somewhat less effectively than the non-acetylated compound

## CO[C@H]1[C@@H](OC)[C@@H](CO[C@@H]2OC[C@@H](O)[C@H](O)[C@H]2O)O[C@@H](Oc2ccc3ccccc3c2)[C@@H]1OC [Xylβ1→6Gal(Me)3-0-2-naphthol]
[6]
  minimal effective concentration: < 1 µM
  Priming of glycosaminoglycan chains (in words): nearly as well as Xylβ-0-2-napthol

## O[C@H]1[C@@H](O)[C@@H](CO[C@@H]2OC[C@@H](O)[C@H](O)[C@H]2O)O[C@@H](Oc2ccc3ccccc3c2)[C@@H]1O [Xylβ1→6Galβ-0-2-naphthol]
[6]
  Priming of glycosaminoglycan chains (in words): did not prime [^35 S]-glycosaminoglycans even at 500 μM

## O[C@@H]1[C@@H](O)[C@H](Oc2ccc3ccccc3c2)OC[C@H]1O [Xylβ-0-2-naphthol]
[7]
  Binding of primed heparan sulfate chains to basic fibroblast growth factor (in words): will bind to basic fibroblast growth factor
[6]
  Priming of glycosaminoglycan chains (in words): primed chains efficiently
[5]
  Uptake (in words): diffuse more readily than hexosides; also recorded: occurs by diffusion; also recorded: depended on concentration and did not saturate
  Uptake: 1.0 unit of fluorescence
[5]; FIG. 2, 100 μM
  Time for uptake to reach a plateau: less than one minute
[4]
  Uptake: 9.0 Arbitray units

## CC(=O)O[C@H]1[C@@H](OC(C)=O)[C@@H](CO[C@@H]2OC[C@@H](OC(C)=O)[C@H](OC(C)=O)[C@H]2OC(C)=O)O[C@@H](Oc2ccc3ccccc3c2)[C@@H]1OC(C)=O [peracetylated Xylβ1→6Galβ-0-2-naphthol, Xyl(Ac)3 β1→6Gal(Ac)3-0-2-naphthol]
[6]
  minimal effective concentration: ~6 µM

## Xylβ1→6Gal(Me)2 -0-2-naphthol
[6]
  Concentration at which glycosaminoglycan chains are primed: 2 to 6 µM

## Xylβ1→6Gal(Me)-0-2-naphthol
[6]
  Concentration of maximum effect on 35S-glycosaminoglycan synthesis: approximately 60 μM
  Priming of glycosaminoglycan chains (in words): Higher concentrations were less effective
